Assay results published in EP0295827A2, “Use of 24,25-dihydroxy-cholecalciferol in mending bone fractures” (priority 1987, dated 1988).

Tests used:
Type in all cases: in vivo
ICR mice [1] = assay: 30-day repeated oral administration: general blood test; parameters: key: ↓: Decreased; →: No change; ↑: Increased; details: 30 days, vs control group
Method: (§1) 24R,25-(OH)₂-D₃ was dissolved in 1% ethanol containing Panacate 810 to a predetermined concentration and the resultant solution was forcibly and orally administered to 5-week-old male or female ICR mice for 30 days in succession so that the does might become to 10 µg/kg/day, 100 µg/kg/day and 1,000 µg/kg/day, respectively. The thus treated mice were compared with a group of mice to which only the solvent had been administered in the following test items.

ICR mice [2] = assay: 30-day repeated oral administration: biochemical serum test; parameters: key: ↓: Decreased; →: No change; ↑: Increased; details: 30 days, vs control group
Method: as §1

ICR mice [3] = assay: 30-day repeated oral administration: pathological inspection of organs; details: 10, 100 and 1,000 µg/kg/day oral, 30 days; 10% formalin, hematoxylin-eosin
Method: as §1
The following organs were fixed by 10% formalin, stained with hematoxylin-eosin and subjected to pathological inspection.

- Amount of hemoglobin (ICR mice [1]; female, 10 μg/kg·day oral): →
- Homatocrit (ICR mice [1]; female, 10 μg/kg·day oral): →
- Number of erythrocyte (ICR mice [1]; female, 10 μg/kg·day oral): →
- Number of leucocyte (ICR mice [1]; female, 10 μg/kg·day oral): →
- Amount of hemoglobin (ICR mice [1]; female, 100 μg/kg·day oral): →
- Homatocrit (ICR mice [1]; female, 100 μg/kg·day oral): →
- Number of erythrocyte (ICR mice [1]; female, 100 μg/kg·day oral): →
- Number of leucocyte (ICR mice [1]; female, 100 μg/kg·day oral): →
- Amount of hemoglobin (ICR mice [1]; female, 1000 μg/kg·day oral): →
- Homatocrit (ICR mice [1]; female, 1000 μg/kg·day oral): →
- Number of erythrocyte (ICR mice [1]; female, 1000 μg/kg·day oral): →
- Number of leucocyte (ICR mice [1]; female, 1000 μg/kg·day oral): →
- Amount of hemoglobin (ICR mice [1]; male, 10 μg/kg·day oral): →
- Homatocrit (ICR mice [1]; male, 10 μg/kg·day oral): →
- Number of erythrocyte (ICR mice [1]; male, 10 μg/kg·day oral): →
- Number of leucocyte (ICR mice [1]; male, 10 μg/kg·day oral): →
- Amount of hemoglobin (ICR mice [1]; male, 100 μg/kg·day oral): →
- Homatocrit (ICR mice [1]; male, 100 μg/kg·day oral): →
- Number of erythrocyte (ICR mice [1]; male, 100 μg/kg·day oral): →
- Number of leucocyte (ICR mice [1]; male, 100 μg/kg·day oral): →
- Amount of hemoglobin (ICR mice [1]; male, 1000 μg/kg·day oral): →
- Homatocrit (ICR mice [1]; male, 1000 μg/kg·day oral): →
- Number of erythrocyte (ICR mice [1]; male, 1000 μg/kg·day oral): →
- Number of leucocyte (ICR mice [1]; male, 1000 μg/kg·day oral): →
- A/G (ICR mice [2]; female, 10 µg/kg·day oral): →
- ALP (ICR mice [2]; female, 10 µg/kg·day oral): →
- Aℓb (ICR mice [2]; female, 10 µg/kg·day oral): →
- BUN (ICR mice [2]; female, 10 µg/kg·day oral): →
- Ca (ICR mice [2]; female, 10 µg/kg·day oral): →
- GOT (ICR mice [2]; female, 10 µg/kg·day oral): →
- GPT (ICR mice [2]; female, 10 µg/kg·day oral): →
- Gℓu (ICR mice [2]; female, 10 µg/kg·day oral): →
- I-P (ICR mice [2]; female, 10 µg/kg·day oral): →
- LDH (ICR mice [2]; female, 10 µg/kg·day oral): →
- T-Biℓ (ICR mice [2]; female, 10 µg/kg·day oral): →
- T-CHO (ICR mice [2]; female, 10 µg/kg·day oral): →
- T-P (ICR mice [2]; female, 10 µg/kg·day oral): →
- A/G (ICR mice [2]; female, 100 µg/kg·day oral): →
- ALP (ICR mice [2]; female, 100 µg/kg·day oral): →
- Aℓb (ICR mice [2]; female, 100 µg/kg·day oral): →
- BUN (ICR mice [2]; female, 100 µg/kg·day oral): →
- Ca (ICR mice [2]; female, 100 µg/kg·day oral): →
- GOT (ICR mice [2]; female, 100 µg/kg·day oral): →
- GPT (ICR mice [2]; female, 100 µg/kg·day oral): →
- Gℓu (ICR mice [2]; female, 100 µg/kg·day oral): →
- I-P (ICR mice [2]; female, 100 µg/kg·day oral): →
- LDH (ICR mice [2]; female, 100 µg/kg·day oral): →
- T-Biℓ (ICR mice [2]; female, 100 µg/kg·day oral): →
- T-CHO (ICR mice [2]; female, 100 µg/kg·day oral): →
- T-P (ICR mice [2]; female, 100 µg/kg·day oral): →
- A/G (ICR mice [2]; female, 1000 µg/kg·day oral): →
- ALP (ICR mice [2]; female, 1000 µg/kg·day oral): →
- Aℓb (ICR mice [2]; female, 1000 µg/kg·day oral): →
- BUN (ICR mice [2]; female, 1000 µg/kg·day oral): →
- Ca (ICR mice [2]; female, 1000 µg/kg·day oral): →
- GOT (ICR mice [2]; female, 1000 µg/kg·day oral): →
- GPT (ICR mice [2]; female, 1000 µg/kg·day oral): →
- Gℓu (ICR mice [2]; female, 1000 µg/kg·day oral): →
- I-P (ICR mice [2]; female, 1000 µg/kg·day oral): →
- LDH (ICR mice [2]; female, 1000 µg/kg·day oral): →
- T-Biℓ (ICR mice [2]; female, 1000 µg/kg·day oral): →
- T-CHO (ICR mice [2]; female, 1000 µg/kg·day oral): →
- T-P (ICR mice [2]; female, 1000 µg/kg·day oral): →
- A/G (ICR mice [2]; male, 10 µg/kg·day oral): →
- ALP (ICR mice [2]; male, 10 µg/kg·day oral): →
- Aℓb (ICR mice [2]; male, 10 µg/kg·day oral): →
- BUN (ICR mice [2]; male, 10 µg/kg·day oral): →
- Ca (ICR mice [2]; male, 10 µg/kg·day oral): →
- GOT (ICR mice [2]; male, 10 µg/kg·day oral): →
- GPT (ICR mice [2]; male, 10 µg/kg·day oral): →
- Gℓu (ICR mice [2]; male, 10 µg/kg·day oral): →
- I-P (ICR mice [2]; male, 10 µg/kg·day oral): →
- LDH (ICR mice [2]; male, 10 µg/kg·day oral): →
- T-Biℓ (ICR mice [2]; male, 10 µg/kg·day oral): →
- T-CHO (ICR mice [2]; male, 10 µg/kg·day oral): →
- T-P (ICR mice [2]; male, 10 µg/kg·day oral): →
- A/G (ICR mice [2]; male, 100 µg/kg·day oral): →
- ALP (ICR mice [2]; male, 100 µg/kg·day oral): →
- Aℓb (ICR mice [2]; male, 100 µg/kg·day oral): →
- BUN (ICR mice [2]; male, 100 µg/kg·day oral): →
- Ca (ICR mice [2]; male, 100 µg/kg·day oral): →
- GOT (ICR mice [2]; male, 100 µg/kg·day oral): →
- GPT (ICR mice [2]; male, 100 µg/kg·day oral): →
- Gℓu (ICR mice [2]; male, 100 µg/kg·day oral): →
- I-P (ICR mice [2]; male, 100 µg/kg·day oral): →
- LDH (ICR mice [2]; male, 100 µg/kg·day oral): →
- T-Biℓ (ICR mice [2]; male, 100 µg/kg·day oral): →
- T-CHO (ICR mice [2]; male, 100 µg/kg·day oral): →
- T-P (ICR mice [2]; male, 100 µg/kg·day oral): →
- A/G (ICR mice [2]; male, 1000 µg/kg·day oral): →
- ALP (ICR mice [2]; male, 1000 µg/kg·day oral): →
- Aℓb (ICR mice [2]; male, 1000 µg/kg·day oral): →
- BUN (ICR mice [2]; male, 1000 µg/kg·day oral): ↓
- Ca (ICR mice [2]; male, 1000 µg/kg·day oral): →
- GOT (ICR mice [2]; male, 1000 µg/kg·day oral): →
- GPT (ICR mice [2]; male, 1000 µg/kg·day oral): →
- Gℓu (ICR mice [2]; male, 1000 µg/kg·day oral): ↓
- I-P (ICR mice [2]; male, 1000 µg/kg·day oral): →
- LDH (ICR mice [2]; male, 1000 µg/kg·day oral): ↓
- T-Biℓ (ICR mice [2]; male, 1000 µg/kg·day oral): ↓
- T-CHO (ICR mice [2]; male, 1000 µg/kg·day oral): →
- T-P (ICR mice [2]; male, 1000 µg/kg·day oral): →
Structure (SMILES): C=C1CC[C@H](O)C/C1=C/C=C1\CCC[C@]2(C)[C@@H]([C@H](C)CC[C@@H](O)C(C)(C)O)CC[C@@H]12 [24R,25-(OH)₂-D₃]
- pathological inspection of organs (ICR mice [3]): No particular abnormality was observed
